According to patent US20070111284A1, “Galactosylation of Recombinant Glycoproteins” (Genentech, Inc., priority 2000, published 2007):

Columns and labels:
[1] = system: CHO cells; test: Intracellular nucleotides and nucleotide sugars (HPLC) in PALA resistant CHO cells; assay type: cell-based, Chinese hamster; conditions: FIG. 6
Method: CHO cells were treated in 5 mM PALA, cell extracts were prepared and nucleotides measured using a method similar to Ryll and Wagner. Ryll and Wagner (1991) J. Chromatography, 570:77-88. The experiment was performed over a time course of 10 to 90 days and data quantified and plotted as UTP content of PALA resistant cells relative to control cells.
Further, PALA resistant CHO DP12 cells expressing TNFR-IgG were seeded at 4×10^6 cells per ml in spinner flask cultures and incubated at 31° C. and 6 mM butyrate for 6 days. The cell culture supernatant was harvested and TNFR-IgG recovered by a method of protein A immunoaffinity chromatography as is well known in the art. N-linked glycans were analyzed by MALDI mass spectrometry using the method generally described by Papac et al., (1996) Anal. Chem., 68:3215-3223. Sialic acid content of the TNFR-IgG was determined using were analyzed using the method generally described by Anumula, (1995) Anal. Biochem., 230, 24-30.

[2] = system: CAD mRNA; test: CAD mRNA expression by RNase protection assay in PALA selected cells; assay type: cell-based; conditions: TRY cells selected under 2 mM PALA; FIG. 4
Method: CAD expression was measured on PALA resistant cells using a RNase protection assay similar to the method described in Mahler and McGuire. Mahler and McGuire (1990), J. Clin. Invest., 86: 1641-1648. In particular, TRY cells were selected under 2 mM PALA and CAD mRNA expression measured using a RNase protection assay.

[3] = system: CPS II; test: CPS II activity in PALA resistant CHO cells; assay type: cell-based, Chinese hamster; conditions: CHO B cell line, selected with 3 mM PALA; FIG. 3
Method: CHO DP12 and CHO DG44 parental cell lines and CHO DP12 expressing TNFR-IgG and anti-CD11a were cultivated with and without P-phosphonacytyl-L-aspartate (PALA). As shown schematically in FIG. 2, each cell line was plated at 10% confluency in 10 cm petri dishes using standard tissue culture techniques. Cells were cultured in serum containing medium having 0.1 mM PALA. The culture medium was changed weekly. Surviving clones were pooled and sub-cultivated in increasing concentrations of PALA until the target PALA concentration was reached, i.e., 2-10 mM PALA. After selection for the PALA phenotype (see below), cells were either passed into a PALA containing medium or to a PALA free medium and further cultivated in suspension spinner flasks. Spinner flask cell populations were sub-cultivated every 4-7 days. Cells selected in the presence of PALA are referred to as PALA-resistant cells, cells cultivated in the same manner as above but not treated with PALA will be referred to as control cells.
CHO cells treated with 3 mM PALA were analyzed for CPS II activity, an indicator of overall CAD activity, using the method generally described in Mori and Tatibana. […] Two PALA resistant CHO sub-cultures were analyzed, CHO-A and CHO-B, to ensure that results were uniform to the PALA resistant phenotype and not particular to a sub-population of treated cells.

[4] = system: CHO cell line that produces aCD20; test: Galactose content of aCD20 MAb from CHO cells cultured with uridine (capillary electrophoresis); assay type: cell-based, Chinese hamster; conditions: 0.5 to 1.0 mM uridine for 7 days; FIG. 10
Method: A CHO cell line that produces a recombinant glycoprotein, monoclonal antibody (MAb) aCD20, was cultured in the presence and absence of 0.5 to 1.0 mM uridine for a period of 7 days. Secreted aCD20 MAb was purified by immunoaffinity using the method of Ma & Nashabeh. Ma & Mashabeh (1999) Analytical Chemistry 71(22):5185-92. Purified aCD20 was tested for galactose content using the capillary electrophoresis method of Ma & Nashabeh and plotted as a percent galactose content.

[5] = system: CHO cells; test: Intracellular UTP and UDP-galactose in CHO cells fed uridine or galactose; assay type: cell-based, Chinese hamster
Method: CHO cells were incubated under standard tissue culture technique in the presence and absence of 1 to 20 mM uridine for 18 hours and tested for UTP concentrations using a method similar to Ryll and Wagner. Quantified data from the 0, 1, 2, 5, 10 and 20 mM uridine cultures were plotted as a function of normalized intracellular UTP concentrations. Alternatively, CHO Cells were cultured in the presence of 0.2 mM uridine or 11 mM galactose and tested for UTP concentrations using the method of Ryll and Wagner.

[6] = 0.2 mM uridine or 11 mM galactose, FIG. 8

| Compound | increase in UTP content as compared to control cells ([1]; CHO cells treated in 5 mM PALA, time course of 10 to 90 days) | increase in UDP-galactose content as compared to control cells ([1]; PALA resistant CHO cells, period of at least 90 days) | increase in CAD mRNA as compared to control cells [2] | increase in CPS II activity as compared to control CHO cells [3] | galactose content of aCD20 MAb versus non-uridine treated control cells [4] | intracellular UTP levels [5, 6] | intracellular UTP levels ([5]; 1 to 20 mM uridine for 18 hours, FIG. 7) | intracellular UDP-galactose levels ([5]; 11 mM galactose, FIG. 8) |
| --- | --- | --- | --- | --- | --- | --- | --- | --- |
| O=C(O)C[C@H](NC(=O)CP(=O)(O)O)C(=O)O [PALA, N-phosphonacetyl-L-aspartate] | 200-350% | 200-350% | two | twenty | – | – | – | – |
| O=c1ccn([C@@H]2O[C@H](CO)[C@@H](O)[C@H]2O)c(=O)[nH]1 [uridine] | – | – | – | – | much higher galactose content | dramatic increase in UTP levels | increases UTP levels within the cell in a dose dependent manner | – |
| O=C[C@H](O)[C@@H](O)[C@@H](O)[C@H](O)CO [galactose] | – | – | – | – | – | does not increase UTP levels | – | does increase UDP-galactose levels |
